According to PubChem BioAssay (NCI):
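Values below derive from 48-hour exposures of cells grown in 96-well plates, with endpoints linearly interpolated between the two concentrations bracketing the appropriate inhibition level. GI50 is the concentration that inhibits growth by half. TGI: total growth inhibition.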

How the values were obtained:
Assay in all cases: NCI-60 cell line screen, 48 h
NCI-H460 lung = tested on: NCI-H460 lung
LOX IMVI melanoma = tested on: LOX IMVI melanoma
SR leukemia = tested on: SR leukemia
M14 melanoma = tested on: M14 melanoma
HOP-92 NSCLC = tested on: HOP-92 NSCLC
UACC-62 melanoma = tested on: UACC-62 melanoma
MCF7 breast = tested on: MCF7 breast
ACHN renal = tested on: ACHN renal
SK-MEL-5 melanoma = tested on: SK-MEL-5 melanoma
K-562 leukemia = tested on: K-562 leukemia

Row | SMILES | TGI (NCI-H460 lung) [µM] | TGI (LOX IMVI melanoma) [µM] | TGI (SR leukemia) [µM] | TGI (M14 melanoma) [µM] | TGI (HOP-92 NSCLC) [µM] | TGI (UACC-62 melanoma) [µM] | TGI (MCF7 breast) [µM] | TGI (ACHN renal) [µM] | TGI (SK-MEL-5 melanoma) [µM] | TGI (K-562 leukemia) [µM] | GI50 (NCI-H460 lung) [µM] | GI50 (HOP-92 NSCLC) [µM] | GI50 (ACHN renal) [µM]
1 | C[C@]12CC[C@H]3[C@@H](CC=C4C[C@@H](O)CC[C@@]43C)[C@@H]1C/C(=C\c1cccnc1)[C@@H]2O | > 100 | 4.46 | > 100 | > 100 | 59.6 | 39.8 | 42.5 | 32.2 | – | – | – | – | –
2 | COc1cc2c(c(OC)c1OC)C(=O)c1c(O)cc(C)c(OC)c1C2=O | > 100 | > 100 | > 100 | > 100 | > 100 | – | > 100 | > 100 | > 100 | – | – | – | –
3 | Clc1cc(N/N=C(\c2ccccc2)c2ccccn2)ncn1 | 83.1 | 1.74 | 3.08 | > 100 | > 100 | 2.7 | – | > 100 | 4.2 | > 100 | – | – | –
4 | COC(=O)c1ccccc1CC1Cc2c(C)ccc(C)c2C1=O (configuration not stated) | > 100 | 37.4 | – | > 100 | 54.4 | > 100 | 30 | > 100 | 34 | > 100 | – | – | –
5 | ClC1=NSSC1(Cl)Cl | > 100 | > 100 | 60.2 | 40.1 | – | > 100 | > 100 | 39.5 | 28.8 | 24 | – | – | –
6 | CC(=O)N[C@@H](Cc1ccc(O)cn1)C(=O)NCc1ccc(Cl)cc1 | > 100 | > 100 | – | > 100 | > 100 | > 100 | > 100 | > 100 | > 100 | > 100 | – | – | –
7 | CC1=NN(c2nc(N)nc(CO)n2)C(C)(C)C1 | – | > 100 | – | > 100 | > 100 | > 100 | > 100 | > 100 | > 100 | > 100 | – | – | –
8 | CC(=O)Oc1ccc2cc(Oc3cc(Cl)c(Cl)cc3Cl)c(=O)oc2c1 | 37.8 | 28.9 | 67.6 | 35.2 | 48 | – | 67.7 | 50.5 | 24.1 | 25.9 | – | – | –
9 | O=C(C[N+]12CN3CN(CN(C3)C1)C2)c1ccc(-c2ccccc2)cc1 | 30.9 | 30.6 | 12.2 | 49.5 | > 100 | 29.9 | – | 52.9 | 30.4 | 33.7 | – | – | –
10 | CCCCCCCCCCCC1N=C(N)N=C(N)N1c1cccc(Br)c1 (configuration not stated) | 1.65 | – | – | – | 4.34 | – | – | 7.05 | – | – | 0.0779 | 1.51 | 2.52
11 | COC1OC2COC(=O)c3cc(O)c(O)c(O)c3-c3c(cc(O)c(O)c3O)C(=O)OC2C(O)C1O (configuration not stated) | > 100 | 60 | – | > 100 | – | 47.1 | > 100 | > 100 | > 100 | > 100 | – | – | –
12 | Brc1ccc2[nH]c3c(C4=NCCC4)nccc3c2c1 | > 32.8 | > 46.6 | – | – | > 74.2 | 30.5 | > 47.6 | – | > 34.2 | > 41.9 | – | – | –
13 | O=C1NC(N2CCCC(CO)C2)=N/C1=C\c1cccs1 (configuration not stated) | – | > 100 | > 100 | > 100 | > 100 | > 100 | > 100 | > 100 | > 100 | > 100 | – | – | –
14 | CC1CC(=O)N(N(C)C)C2(C#N)C(=O)N=C(N)C12C#N (configuration not stated) | – | > 100 | > 100 | > 100 | > 100 | > 100 | > 100 | > 100 | > 100 | 59.6 | – | – | –
15 | CC1OC(OC2C(O)CC(OC3C(O)CC(OC4CCC5(C)C(CCC6C5CCC5(C)C(C7=CC(=O)OC7)C(O)CC65O)C4)OC3C)OC2C)CC(O)C1O (configuration not stated) | 0.532 | 0.235 | > 100 | 1.99 | 1.85 | 1.18 | – | 0.473 | 0.533 | > 100 | – | – | –
16 | COc1cccc(NC(=O)CC(=O)NN)c1 | > 100 | > 100 | > 100 | – | > 100 | > 100 | > 100 | > 100 | > 100 | > 100 | – | – | –
17 | COC(=O)/C=C(C)/C=C\COC1CCCCO1 (configuration not stated) | > 100 | > 100 | > 100 | > 100 | – | > 100 | > 100 | > 100 | > 100 | > 100 | – | – | –
18 | CNC(=O)OCc1cnc([N+](=O)[O-])n1C | > 100 | > 100 | > 100 | – | > 100 | – | > 100 | > 100 | > 100 | > 100 | – | – | –
19 | Cc1ccc(C(=O)N/N=C(\N=Nc2ccc([N+](=O)[O-])cc2)c2ccc(N(CCC#N)CCC#N)cc2C)cc1 | > 100 | > 100 | > 100 | > 100 | > 100 | – | > 100 | > 100 | > 100 | > 100 | – | – | –
20 | O=C(NNC(=O)c1ccco1)c1ccco1 | > 100 | > 100 | > 100 | > 100 | – | > 100 | > 100 | – | > 100 | > 100 | – | – | –
21 | Cc1ccc(S(=O)(=O)OC[C@@]2(C)CC[C@]3(C)CC[C@]4(C)C(=C3C2)C=C[C@@H]2[C@@]3(C)CCCNC(C)(C)[C@@H]3CC[C@]24C)cc1 | – | – | – | – | 2.97 | – | – | 3.1 | – | – | – | 1.45 | 1.72
22 | O=C(/C=C/c1ccc(OCc2ccccc2)cc1)NCc1ccc(C(=O)NCCc2ccccc2)cc1 | > 100 | > 100 | – | > 100 | > 100 | > 100 | > 100 | > 100 | > 100 | – | – | – | –
23 | Cc1ccc(S(=O)(=O)N/N=C2\C=CC3(CC2)C(=O)N(I)c2ccccc23)cc1 (configuration not stated) | > 100 | > 100 | > 100 | > 100 | > 100 | > 100 | – | > 100 | > 100 | > 100 | – | – | –
24 | C[N+](C)(CCNc1ccc(NCC[N+](C)(C)Cc2ccc([N+](=O)[O-])cc2)c2c1C(=O)c1c(O)ccc(O)c1C2=O)Cc1ccc([N+](=O)[O-])cc1 | > 50 | > 50 | – | > 50 | – | > 50 | – | > 50 | > 50 | > 5 | – | – | –
